Laboratory results as given in patent US9695133B2, “Quinazolinone-based oncogenic-RAS-selective lethal compounds and their use” (THE TRUSTEES OF COLUMBIA UNIVERSITY IN THE CITY OF NEW YORK, priority 2012, dated 2017).

Test system: HT-1080 cells
Experiment: Metabolite profiling (LC-MS/MS) upon erastin treatment
Format: cell-based, human
Details: 5 μg/mL erastin 5 h
Procedure: 2 million HT-1080 cells were seeded in 10 cm culture dishes. […] 4 mL of cold 80% methanol was added to the cell monolayer to extract polar metabolites using a cell scraper. The cell lysate/methanol mixture was transferred to a 15 mL tube and centrifuged at 2,000×g at 4° C. for 10 minutes to pellet debris and proteins. The supernatant was transferred to a new tube and stored at −80° C. for liquid chromatography-mass spectrometry/mass spectrometry (LC-MS/MS) analysis. For lipid extract preparation, 3 mL of cold 100% isopropanol was added to the cell monolayer to scrape out cells. The resulting cell lysate/isopropanol mixture was transferred to a new 15 mL tube and centrifuged at 2,000×g at 4° C. for 10 minutes. The cleared supernatant was transferred to a new tube and stored at −20° C. for LC-MS/MS analysis.
The metabolite extract was subjected to LC-MS/MS analysis to determine the quantity of each metabolite in each sample.

CCOc1ccccc1-n1c(C(C)N2CCN(C(=O)COc3ccc(Cl)cc3)CC2)nc2ccccc2c1=O (stereo not drawn) [erastin]
G6P Erastin/DMSO: 1.134
G6P log2 (Erastin/DMSO): 0.181
GABA Erastin/DMSO: 1.173
GABA log2 (Erastin/DMSO): 0.2297
GDP Erastin/DMSO: 0.8497
GDP log2 (Erastin/DMSO): −0.235
GMP Erastin/DMSO: 1.066
GMP log2 (Erastin/DMSO): 0.09204
IMP Erastin/DMSO: 1.065
IMP log2 (Erastin/DMSO): 0.09035
N-carbomoyl-beta-alanine Erastin/DMSO: 0.7958
N-carbomoyl-beta-alanine log2 (Erastin/DMSO): −0.3296
NAD Erastin/DMSO: 0.9157
NAD log2 (Erastin/DMSO): −0.127
NADH Erastin/DMSO: 0.8051
NADH log2 (Erastin/DMSO): −0.3128
NMMA Erastin/DMSO: 0.9886
NMMA log2 (Erastin/DMSO): −0.01661
OH-phenylpyruvate Erastin/DMSO: 0.8442
OH-phenylpyruvate log2 (Erastin/DMSO): −0.2443
PEP Erastin/DMSO: 1.147
PEP log2 (Erastin/DMSO): 0.1975
SDMA Erastin/DMSO: 0.9505
SDMA log2 (Erastin/DMSO): −0.07329
UDP Erastin/DMSO: 1.002
UDP log2 (Erastin/DMSO): 0.002894
UDP-galactose/UDP-glucose Erastin/DMSO: 0.9003
UDP-galactose/UDP-glucose log2 (Erastin/DMSO): −0.1516
UDP-glucuronate Erastin/DMSO: 0.9339
UDP-glucuronate log2 (Erastin/DMSO): −0.09865
UMP Erastin/DMSO: 1.049
UMP log2 (Erastin/DMSO): 0.06891
XMP Erastin/DMSO: 0.8599
XMP log2 (Erastin/DMSO): −0.2178
acetylcholine Erastin/DMSO: 0.8307
acetylcholine log2 (Erastin/DMSO): −0.2676
aconitate Erastin/DMSO: 1.036
aconitate log2 (Erastin/DMSO): 0.05158
adenine Erastin/DMSO: 1.254
adenine log2 (Erastin/DMSO): 0.3261
adenosine Erastin/DMSO: 1.376
adenosine log2 (Erastin/DMSO): 0.4605
adipate Erastin/DMSO: 1.091
adipate log2 (Erastin/DMSO): 0.1256
alanine Erastin/DMSO: 1.061
alanine log2 (Erastin/DMSO): 0.0857
allantoin Erastin/DMSO: 0.9512
allantoin log2 (Erastin/DMSO): −0.07213
alpha-glycerophosphate Erastin/DMSO: 0.7556
alpha-glycerophosphate log2 (Erastin/DMSO): −0.4043
alpha-glycerophosphocholine Erastin/DMSO: 0.2194
alpha-glycerophosphocholine log2 (Erastin/DMSO): −2.188
alpha-ketoglutarate Erastin/DMSO: 0.9867
alpha-ketoglutarate log2 (Erastin/DMSO): −0.01926
arginine Erastin/DMSO: 0.9866
arginine log2 (Erastin/DMSO): −0.01943
ascorbate Erastin/DMSO: 1.196
ascorbate log2 (Erastin/DMSO): 0.2586
asparagine Erastin/DMSO: 1.069
asparagine log2 (Erastin/DMSO): 0.09662
aspartate Erastin/DMSO: 1.017
aspartate log2 (Erastin/DMSO): 0.02452
betaine Erastin/DMSO: 0.9528
betaine log2 (Erastin/DMSO): −0.06976
cAMP Erastin/DMSO: 1.266
cAMP log2 (Erastin/DMSO): 0.3404
carnitine Erastin/DMSO: 0.802
carnitine log2 (Erastin/DMSO): −0.3183
carnosine Erastin/DMSO: 0.9657
carnosine log2 (Erastin/DMSO): −0.0503
choline Erastin/DMSO: 0.8139
choline log2 (Erastin/DMSO): −0.2971
cis/trans hydroxyproline Erastin/DMSO: 1.099
cis/trans hydroxyproline log2 (Erastin/DMSO): 0.1366
citrate Erastin/DMSO: 0.974
citrate log2 (Erastin/DMSO): −0.03805
citrulline Erastin/DMSO: 1.036
citrulline log2 (Erastin/DMSO): 0.05057
cotinine Erastin/DMSO: 0.9037
cotinine log2 (Erastin/DMSO): −0.146
creatine Erastin/DMSO: 0.8675
creatine log2 (Erastin/DMSO): −0.205
creatinine Erastin/DMSO: 0.972
creatinine log2 (Erastin/DMSO): −0.04091
cystamine Erastin/DMSO: 1.09
cystamine log2 (Erastin/DMSO): 0.1248
cystathionine Erastin/DMSO: 1.263
cystathionine log2 (Erastin/DMSO): 0.3368
cytidine Erastin/DMSO: 6.079
cytidine log2 (Erastin/DMSO): 2.604
cytosine Erastin/DMSO: 0.8863
cytosine log2 (Erastin/DMSO): −0.1741
dCMP Erastin/DMSO: 0.9184
dCMP log2 (Erastin/DMSO): −0.1228
dGMP Erastin/DMSO: 1.052
dGMP log2 (Erastin/DMSO): 0.07275
dTMP Erastin/DMSO: 0.6985
dTMP log2 (Erastin/DMSO): −0.5178
dUMP Erastin/DMSO: 0.6787
dUMP log2 (Erastin/DMSO): −0.5592
dimethylglycine Erastin/DMSO: 0.9338
dimethylglycine log2 (Erastin/DMSO): −0.09885
folate Erastin/DMSO: 1.032
folate log2 (Erastin/DMSO): 0.04552
fumarate Erastin/DMSO: 0.9822
fumarate log2 (Erastin/DMSO): −0.02598
glucose Erastin/DMSO: 0.9717
glucose log2 (Erastin/DMSO): −0.04147
glucose/fructose/galactose Erastin/DMSO: 1.011
glucose/fructose/galactose log2 (Erastin/DMSO): 0.01526
glucuronate Erastin/DMSO: 0.61
glucuronate log2 (Erastin/DMSO): −0.7132
glutamate Erastin/DMSO: 1.019
glutamate log2 (Erastin/DMSO): 0.02762
glutamine Erastin/DMSO: 1.015
glutamine log2 (Erastin/DMSO): 0.02096
glutathione oxidized Erastin/DMSO: 0.3235
glutathione oxidized log2 (Erastin/DMSO): −1.628
glutathione reduced Erastin/DMSO: 0.007019
glutathione reduced log2 (Erastin/DMSO): −7.154
glyceraldehyde-3-phosphate Erastin/DMSO: 1.192
glyceraldehyde-3-phosphate log2 (Erastin/DMSO): 0.2529
glycerol Erastin/DMSO: 1.058
glycerol log2 (Erastin/DMSO): 0.08176
glycine Erastin/DMSO: 0.9723
glycine log2 (Erastin/DMSO): −0.04055
glycochenodeoxycholate Erastin/DMSO: 1.067
glycochenodeoxycholate log2 (Erastin/DMSO): 0.09335
glycocholate Erastin/DMSO: 0.9975
glycocholate log2 (Erastin/DMSO): −0.003654
glycodeoxycholate Erastin/DMSO: 1.054
glycodeoxycholate log2 (Erastin/DMSO): 0.07552
